Measured values: patent US5059590A, “Imidazole derivatives, process for production thereof, and use thereof” (Yamasa Shoyu Kabushiki Kaisha, priority 1988, dated 1991)
In brackets after ≈: the same amount, converted by molar mass.

Experiments:
[1] = tested on: Mouse lymphoma cell line P388; assay: In vitro anti-proliferative activity against mouse tumor cell lines, Test Method 2 (P388); format: cell-based; conditions: P388, 48 hours, 37° C.
Experimental: (§1) In vitro anti-proliferative activity against mouse tumor cell lines
(§2) 1. Mouse lymphoma cell line P388 or mouse sarcoma 180 is suspended in RPMI1640 medium supplemented with 10% fetal bovine serum and 2 μM 2-hydroxyethyl disulfide to a concentration of 10^5 cells/ml. Test compounds are serially diluted with the same medium.
(§3) 2. 0.5 ml of the cell suspension thus obtained is admixed with 0.5 ml of the medium or the test compound solution, and the mixture is incubated in a 5% CO2 -incubator at 37° C. for 48 hours. The incubation is carried out in glass culture tubes.
(§4) 3. At the end of incubation, the number of the cells in each tube is counted with a Coulter counter (Model ZB, Coulter Electronics), and the growth inhibition percent (%) is calculated from the same equation as in Test Method 1.
(§5) 4. The IC50 value is obtained as in Test Method I.

mouse sarcoma 180 = assay: In vitro anti-proliferative activity against mouse tumor cell lines, Test Method 2 (sarcoma 180); format: cell-based; conditions: Sarcoma 180, 48 hours, 37° C.
Experimental: as §1, §2, §3, §4, §5

MG-63 = assay: In vitro anti-proliferative activity against human tumor cell lines (MG-63); format: cell-based; conditions: MG-63, Osteogenic sarcoma, 72 hours
Experimental: (§6) In vitro anti-proliferative activity against human tumor cell lines
(§7) Test Compound: 5-ethynyl-1-β-D-ribofuranosylimidazole-4-carboxamide
(§8) A variety of human tumor cell lines are suspended in media specified according to the species of the cell lines to predetermined cell concentrations as shown in the following Table.
(§9) 1 ml of the resulting cell suspension is seeded into each well of a 24 multi-well plate and incubated in a 5% CO2 -incubator at 37° C. for 24 hours. The culture medium is then replaced by a medium containing no test compound or by an appropriate amount of a serially diluted test compound solution. […] The number of the cells in each well is counted with a Coulter counter (Model ZB, Coulter Electronics), and the growth inhibition percent (%) of the cells at each concentration of a test compound is determined by the following equation: [formula] Tx: Number of the cells in a well containing a test compound as counted upon completion of the incubation (cells/ml) […] Cx: Number of the cells in a well containing no test compound as counted upon completion of the incubation (cells/ml)
(§10) Co: Number of the cells in a well containing no test compound as counted at the initiation of the incubation (cells/ml) […]

KB = assay: In vitro anti-proliferative activity against human tumor cell lines (KB); format: cell-based; conditions: Nasopharyngeal carcinoma, 72 hours
Experimental: as §6, §7, §8, §9, §10

WiDr = assay: In vitro anti-proliferative activity against human tumor cell lines (WiDr); format: cell-based; conditions: Colon adenocarcinoma, 72 hours
Experimental: as §6, §7, §8, §9, §10

SK-MES-1 = assay: In vitro anti-proliferative activity against human tumor cell lines (SK-MES-1); format: cell-based; conditions: SK-MES-1, Lung Squamous carcinoma, 72 hours
Experimental: as §6, §7, §8, §9, §10

T24 = assay: In vitro anti-proliferative activity against human tumor cell lines (T24); format: cell-based; conditions: T-24, T24, Bladder trasitional-cell carcinoma, 72 hours
Experimental: as §6, §7, §8, §9, §10

HeLa = assay: In vitro anti-proliferative activity against human tumor cell lines (HeLa); format: cell-based; conditions: Cervical carcinoma, 72 hours
Experimental: as §6, §7, §8, §9, §10

PC-3 = assay: In vitro anti-proliferative activity against human tumor cell lines (PC-3); format: cell-based; conditions: PC-3, Prostate adenocarcinoma, 72 hours
Experimental: as §6, §7, §8, §9, §10

[2] = tested on: human gastric cancer cells, 4-1ST; assay: In vivo antitumor activity against human gastric cancer cells, 4-1ST, subcutaneously implanted into nude mice; conditions: for Body weight / T/C (%) / Tumor growth rate (Rt): 125 mg/kg i.v. days 10, 14, 18
Experimental: In vivo antitumor activity against human gastric cancer cells, 4-1ST, subcutaneously implanted into nude mice
Human gastric cancer cells, 4-1ST(ca. 8 mm^3), are subcutaneously implanted at the ventral site of nude mice (BALB/c-nu/nu, female, 5 weeks old). Ten days after the implantation when the tumor volume reaches 150 to 300 mm^3, the mice are divided into groups (6 mice/group), and the treatment with a test drug was started.
5-Ethynyl-1-β-D-ribofuranosylimidazole-4-carboxamide is dissolved in distilled water and intravenously administered to the mice at a dose of 125 mg/kg on days 10, 14 and 18 after the implantation of the tumor, the volume of the drug solution being 0.1 ml per 10 g of the body weight of the mouse.
Each mouse is weighed, and width (a mm) and length (b mm) of the tumor thereof are measured twice a week to determine the tumor volume (A mm^3) from the following equation: […]
Subsequently, the tumor growth rate (R) is determined as follows on the basis of the tumor volume (A10) on day 10 after the implantation of the tumor cells:
R: Tumor growth rate after a predetermined period from the tumor implantation
A: Tumor volume after a predetermined period from the tumor implantation
A10 : Tumor volume as determined 10 days after the tumor implantation
T/C (%) is further obtained from the following equation by comparison between the tumor growth rate in the test group (Rt) and that in the control group (Rc):
Test group: 125 mg/kg of the drug was intravenously administered on days
10, 14 and 18 after the tumor implantation.

[3] = day 22, * = P < 0.05 vs control
[4] = day 25, * = P < 0.05 vs control

With C#Cc1c(C(N)=O)ncn1[C@@H]1O[C@H](CO)[C@@H](O)[C@H]1O [5-ethynyl-1-β-D-ribofuranosylimidazole-4-carboxamide] the IC50 [1] was 0.16 µg/mL (≈ 0.599 µM), the IC50 (mouse sarcoma 180) was 0.1 µg/mL (≈ 0.374 µM) and the IC50 (MG-63) was 0.38 µg/mL (≈ 1.42 µM). For the same compound, the IC50 (KB) was 0.33 µg/mL (≈ 1.23 µM), the IC50 (WiDr) was 0.46 µg/mL (≈ 1.72 µM) and the IC50 (SK-MES-1) was 0.26 µg/mL (≈ 0.973 µM). The IC50 (T24) was 0.37 µg/mL (≈ 1.38 µM), the IC50 (HeLa) was 0.3 µg/mL (≈ 1.12 µM) and the IC50 (PC-3) was 0.8 µg/mL (≈ 2.99 µM). For the same compound, the antitumor activity ([2]; 125 mg/kg every 4 days 3 times in total, i.v.) was “remarkable antitumor activity”, the Body weight ([2]; day 10 after implantation) was 20 g and the “T/C (%)” value ([2]; day 10 after implantation) was 100%. The “Tumor growth rate (Rt)” value ([2]; day 10 after implantation) was 1.0, the Body weight ([2]; day 14) was 21 g and the “T/C (%)” value ([2]; day 14) was 67%. For the same compound, the “Tumor growth rate (Rt)” value ([2]; day 14) was 3.0, the Body weight ([2]; day 17) was 21 g and the “T/C (%)” value ([2]; day 17) was 67%. The “Tumor growth rate (Rt)” value ([2]; day 17) was 5.1, the Body weight ([2]; day 22) was 22 g and the “T/C (%)” value [2, 3] was 60%. The “Tumor growth rate (Rt)” value [2, 3] was 8.0, the Body weight ([2]; day 25) was 23 g and the “T/C (%)” value [2, 4] was 63%. For the same compound, the “Tumor growth rate (Rt)” value [2, 4] was 12, the Body weight ([2]; day 28) was 23 g and the “T/C (%)” value ([2]; day 28) was 67%. The “Tumor growth rate (Rt)” value ([2]; day 28) was 16, the Body weight ([2]; day 31) was 24 g and the “T/C (%)” value ([2]; day 31) was 71%. The “Tumor growth rate (Rt)” value ([2]; day 31) was 20, the Body weight ([2]; day 35) was 23 g and the “T/C (%)” value ([2]; day 35) was 77%. The “Tumor growth rate (Rt)” value ([2]; day 35) was 30.
